From US8163771B2, “11 β-HSD1 modulators” (Exelixis, Inc., priority 2008, dated 2012)

Biological target: T1, recombinant human 11 β-HSD1 (Homo sapiens, UniProt P28845)
T1 construct: made in house; host or cells: E. coli
Assay: 11 β-HSD1 SPA Assay (Scintillation Proximity Assay)
Type: biochemical
How it was run: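 E. coli-expressed human enzyme (30-100 nM) with tritiated cortisone 40 nM and NADPH 1 mM in HEPES buffer pH7.4, 2 hours at room temperature. Stopped with protein A SPA beads carrying anti-cortisol antibody and glycyrrhetinic acid; counted after overnight incubation. IC50 from percent inhibition between no-enzyme and no-compound signals.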

T1 sequence (P28845 whole entry): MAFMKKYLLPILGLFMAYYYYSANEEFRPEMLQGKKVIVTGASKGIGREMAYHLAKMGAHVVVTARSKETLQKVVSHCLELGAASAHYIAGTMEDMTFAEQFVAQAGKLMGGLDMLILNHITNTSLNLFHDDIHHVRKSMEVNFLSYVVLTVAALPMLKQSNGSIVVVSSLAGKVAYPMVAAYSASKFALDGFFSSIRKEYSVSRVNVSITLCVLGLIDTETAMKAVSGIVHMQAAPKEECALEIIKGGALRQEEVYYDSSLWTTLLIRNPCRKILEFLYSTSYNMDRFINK

Structure (SMILES)	IC50
CC(C)(Oc1cc(F)c(F)cc1Cl)C(=O)N[C@H]1C[C@H]2CC[C@@H](C1)N2c1ccc(C(=O)NCC(F)F)cn1 [Example 442, 6-(3-endo-{[2-(2-chloro-4,5-difluorophenoxy)-2-methylpropanoyl]amino}-8-azabicyclo[3.2.1]oct-8-yl)-N-(2,2-difluoroethyl)pyridine-3-carboxamide]	< 200 nM
CC(C)(Oc1ccc(F)cc1F)C(=O)N[C@H]1C[C@H]2CC[C@@H](C1)N2c1ccc(C(=O)NCC(F)F)cn1 [Example 443, N-(2,2-difluoroethyl)-6-(3-endo-{[2-(2,4-difluorophenoxy)-2-methylpropanoyl]amino}-8-azabicyclo[3.2.1]oct-8-yl)pyridine-3-carboxamide]	< 200 nM
CC(C)(Oc1cc(CC(=O)O)c(Cl)cc1Cl)C(=O)N[C@H]1C[C@H]2CC[C@@H](C1)N2c1ccc(C(=O)NCC(F)(F)F)cn1 [Example 444, [2,4-dichloro-5-({2-methyl-1-oxo-1-[(8-{5-[(2,2,2-trifluoroethyl)carbamoyl]pyridin-2-yl}-8-azabicyclo[3.2.1]oct-3-endo-yl)amino]propan-2-yl}oxy)phenyl]acetic acid]	< 200 nM
CC(C)(Oc1cc(C(C)(C)C(=O)O)c(Cl)cc1Cl)C(=O)N[C@H]1C[C@H]2CC[C@@H](C1)N2c1ccc(C(=O)NCC(F)(F)F)cn1 [Example 445, 2-[2,4-dichloro-5-({2-methyl-1-oxo-1-[(8-{5-[(2,2,2-trifluoroethyl)carbamoyl]pyridin-2-yl}-8-azabicyclo[3.2.1]oct-3-endo-yl)amino]propan-2-yl}oxy)phenyl]-2-methylpropanoic acid]	< 200 nM
CC(C)(Oc1cc(C(C)(C)C(N)=O)c(Cl)cc1Cl)C(=O)N[C@H]1C[C@H]2CC[C@@H](C1)N2c1ccc(C(=O)NCC(F)(F)F)cn1 [Example 446, 6-[3-endo-({2-[5-(1-amino-2-methyl-1-oxopropan-2-yl)-2,4-dichlorophenoxy]-2-methylpropanoyl}amino)-8-azabicyclo[3.2.1]oct-8-yl]-N-(2,2,2-trifluoroethyl)pyridine-3-carboxamide]	< 200 nM
CC(C)(Oc1ccc(Cl)cc1F)C(=O)N[C@H]1C[C@H]2CC[C@@H](C1)N2c1ccc(C(=O)NCC(F)F)cn1 [Example 447, 6-(3-endo-{[2-(4-chloro-2-fluorophenoxy)-2-methylpropanoyl]amino}-8-azabicyclo[3.2.1]oct-8-yl)-N-(2,2-difluoroethyl)pyridine-3-carboxamide]	< 200 nM
CC(C)(Oc1ccc(Cl)cc1OC(F)(F)F)C(=O)NC1CC2CCC(C1)N2c1ccc(C(=O)NCC(O)C(F)(F)F)cn1 (stereo not drawn) [Example 448, 6-[3-endo-({2-[4-chloro-2-(trifluoromethoxy)phenoxy]-2-methylpropanoyl}amino)-8-azabicyclo[3.2.1]oct-8-yl]-N-(3,3,3-trifluoro-2-hydroxypropyl)pyridine-3-carboxamide]	< 200 nM
CC(C)(Oc1ccc(Cl)cc1C(F)F)C(=O)NC1CC2CCC(C1)N2c1ccc(C(=O)NCC(O)C(F)(F)F)cn1 (stereo not drawn) [Example 449, 6-[3-endo-({2-[4-chloro-2-(difluoromethyl)phenoxy]-2-methylpropanoyl}amino)-8-azabicyclo[3.2.1]oct-8-yl]-N-(3,3,3-trifluoro-2-hydroxypropyl)pyridine-3-carboxamide]	< 200 nM
C[C@@H](NC(=O)c1ccc(N2C3CCC2CC(NC(=O)C(C)(C)Oc2cc(F)c(Cl)cc2Cl)C3)nc1)C(F)(F)F (stereo partly drawn) [Example 450, 6-(3-endo-{[2-(2,4-dichloro-5-fluorophenoxy)-2-methylpropanoyl]amino}-8-azabicyclo[3.2.1]oct-8-yl)-N-[(2R)-1,1,1-trifluoropropan-2-yl]pyridine-3-carboxamide]	< 200 nM
C[C@@H](NC(=O)c1ccc(N2C3CCC2CC(NC(=O)C(C)(C)Oc2cc(F)c(F)cc2Cl)C3)nc1)C(F)(F)F (stereo partly drawn) [Example 451, 6-(3-endo-{[2-(2-chloro-4,5-difluorophenoxy)-2-methylpropanoyl]amino}-8-azabicyclo[3.2.1]oct-8-yl)-N-[(2R)-1,1,1-trifluoropropan-2-yl]pyridine-3-carboxamide]	< 200 nM
C[C@@H](NC(=O)c1ccc(N2C3CCC2CC(NC(=O)C(C)(C)Oc2ccc(F)cc2Cl)C3)nc1)C(F)(F)F (stereo partly drawn) [Example 452, 6-(3-endo-{[2-(2-chloro-4-fluorophenoxy)-2-methylpropanoyl]amino}-8-azabicyclo[3.2.1]oct-8-yl)-N-[(2R)-1,1,1-trifluoropropan-2-yl]pyridine-3-carboxamide]	< 200 nM
C[C@H](NC(=O)c1ccc(N2C3CCC2CC(NC(=O)C(C)(C)Oc2ccc(C(F)F)cc2Cl)C3)nc1)C(F)(F)F (stereo partly drawn) [Example 453, 6-[3-endo-({2-[2-chloro-4-(difluoromethyl)phenoxy]-2-methylpropanoyl}amino)-8-azabicyclo[3.2.1]oct-8-yl]-N-[(2S)-1,1,1-trifluoropropan-2-yl]pyridine-3-carboxamide]	< 200 nM
CC(C)(Oc1ccc(Cl)cc1OC(F)(F)F)C(=O)NC1CC2CCC(C1)N2c1ccc(C(=O)N2CCC(O)C2)cn1 (stereo not drawn) [Example 454, 2-[4-chloro-2-(trifluoromethoxy)phenoxy]-n-(8-{5-[(3-hydroxypyrrolidin-1-yl)carbonyl]pyridin-2-yl}-8-azabicyclo[3.2.1]oct-3-endo-yl)-2-methylpropanamide]	< 200 nM
CC(C)(Oc1ccc(Cl)cc1OC(F)(F)F)C(=O)NC1CC2CCC(C1)N2c1ccc(C(=O)N2CCC[C@H]2CO)cn1 (stereo partly drawn) [Example 455, 2-[4-chloro-2-(trifluoromethoxy)phenoxy]-n-[8-(5-{[(2s)-2-(hydroxymethyl)pyrrolidin-1-yl]carbonyl}pyridin-2-yl)-8-azabicyclo[3.2.1]oct-3-endo-yl]-2-methylpropanamide]	< 200 nM
CC(C)(Oc1ccc(Cl)cc1Cl)C(=O)NC1CC2CCC(C1)N2c1ccc(C(=O)NC[C@H](O)C(F)(F)F)cn1 (stereo partly drawn) [Example 456, 6-(3-endo-{[2-(2,4-dichlorophenoxy)-2-methylpropanoyl]amino}-8-azabicyclo[3.2.1]oct-8-yl)-N-[(2S)-3,3,3-trifluoro-2-hydroxypropyl]pyridine-3-carboxamide]	< 200 nM
CC(C)(Oc1ccc(F)cc1Cl)C(=O)NC1CC2CCC(C1)N2c1ccc(C(=O)NCC(O)C(F)(F)F)cn1 (stereo not drawn) [Example 457, 6-(3-endo-{[2-(2-chloro-4-fluorophenoxy)-2-methylpropanoyl]amino}-8-azabicyclo[3.2.1]oct-8-yl)-N-(3,3,3-trifluoro-2-hydroxypropyl)pyridine-3-carboxamide]	< 200 nM
CC(C)(Oc1ccc(Cl)cc1C(F)(F)F)C(=O)NC1CC2CCC(C1)N2c1ccc(C(=O)NCC(O)C(F)(F)F)cn1 (stereo not drawn) [Example 458, 6-[3-endo-({2-[4-chloro-2-(trifluoromethyl)phenoxy]-2-methylpropanoyl}amino)-8-azabicyclo[3.2.1]oct-8-yl]-N-(3,3,3-trifluoro-2-hydroxypropyl)pyridine-3-carboxamide]	< 200 nM
CC(C)(Oc1ccc(F)cc1C(F)(F)F)C(=O)NC1CC2CCC(C1)N2c1ccc(C(=O)NCC(O)C(F)(F)F)cn1 (stereo not drawn) [Example 459, 6-[3-endo-({2-[4-fluoro-2-(trifluoromethyl)phenoxy]-2-methylpropanoyl}amino)-8-azabicyclo[3.2.1]oct-8-yl]-N-(3,3,3-trifluoro-2-hydroxypropyl)pyridine-3-carboxamide]	< 200 nM
